According to ChEMBL document CHEMBL6074711, “Design, Synthesis, and Activity Evaluation of C-23-Modified 5-O-Mycaminosyltylonolide Derivatives” (ACS Med Chem Lett, 2024):
Values after ≈ are worked out from the molar mass of the structure shown.

What was measured:
Staphylococcus aureus [1] = experiment: Antibacterial activity against Staphylococcus aureus ATCC25923 incubated for 16 to 20 hrs by broth microdilution method; format: functional; settings: time 16-20 hrs
Escherichia coli [2] = experiment: Antibacterial activity against Escherichia coli ATCC25922 incubated for 16 to 20 hrs by broth microdilution method; format: functional; settings: time 16-20 hrs
Enterococcus faecalis [3] = experiment: Antibacterial activity against Enterococcus faecalis ATCC29212 incubated for 16 to 20 hrs by broth microdilution method; format: functional; settings: time 16-20 hrs
[4] = test system: Stenotrophomonas maltophilia; experiment: Antibacterial activity against Stenotrophomonas maltophilia ATCC17808 incubated for 16 to 20 hrs by broth microdilution method; format: functional; settings: time 16-20 hrs
Staphylococcus aureus [5] = experiment: Antibacterial activity against drug-resistant Staphylococcus aureus clinical isolate M20 incubated for 16 to 20 hrs by broth microdilution method; format: functional; settings: time 16-20 hrs
Escherichia coli [6] = experiment: Antibacterial activity against drug-resistant Escherichia coli clinical isolate 1322 incubated for 16 to 20 hrs by broth microdilution method; format: functional; settings: time 16-20 hrs
Escherichia coli [7] = experiment: Antibacterial activity against drug-resistant Escherichia coli clinical isolate 1333 incubated for 16 to 20 hrs by broth microdilution method; format: functional; settings: time 16-20 hrs
Staphylococcus aureus [8] = experiment: Bactericidal activity against Staphylococcus aureus ATCC25923 incubated for 20 to 24 hrs; format: functional; settings: time 20-24 hrs
Staphylococcus aureus [9] = experiment: Antibacterial activity against Staphylococcus aureus ATCC25923 incubated for 20 to 24 hrs; format: functional; settings: time 20-24 hrs
Staphylococcus aureus [10] = experiment: Ratio of MBC to MIC for Staphylococcus aureus ATCC25923 incubated for 20 to 24 hrs; format: functional; settings: time 20-24 hrs
Enterococcus faecalis [11] = experiment: Bactericidal activity against Enterococcus faecalis ATCC29212 incubated for 20 to 24 hrs; format: functional; settings: time 20-24 hrs
Enterococcus faecalis [12] = experiment: Antibacterial activity against Enterococcus faecalis ATCC29212 incubated for 20 to 24 hrs; format: functional; settings: time 20-24 hrs
Enterococcus faecalis [13] = experiment: Ratio of MBC to MIC for Enterococcus faecalis ATCC29212 incubated for 20 to 24 hrs; format: functional; settings: time 20-24 hrs
Escherichia coli [14] = experiment: Bactericidal activity against Escherichia coli ATCC25922 incubated for 20 to 24 hrs; format: functional; settings: time 20-24 hrs
Escherichia coli [15] = experiment: Antibacterial activity against Escherichia coli ATCC25922 incubated for 20 to 24 hrs; format: functional; settings: time 20-24 hrs
Escherichia coli [16] = experiment: Ratio of MBC to MIC for Escherichia coli ATCC25922 incubated for 20 to 24 hrs; format: functional; settings: time 20-24 hrs
[17] = test system: Stenotrophomonas maltophilia; experiment: Bactericidal activity against Stenotrophomonas maltophilia ATCC17808 incubated for 20 to 24 hrs; format: functional; settings: time 20-24 hrs
[18] = test system: Stenotrophomonas maltophilia; experiment: Antibacterial activity against Stenotrophomonas maltophilia ATCC17808 incubated for 20 to 24 hrs; format: functional; settings: time 20-24 hrs
[19] = test system: Stenotrophomonas maltophilia; experiment: Ratio of MBC to MIC for Stenotrophomonas maltophilia ATCC17808 incubated for 20 to 24 hrs; format: functional; settings: time 20-24 hrs
Escherichia coli [20] = experiment: Antibacterial activity against Escherichia coli ATCC25922 at pH 6.80; format: functional
Escherichia coli [21] = experiment: Antibacterial activity against Escherichia coli ATCC25922 at pH 7; format: functional
Escherichia coli [22] = experiment: Antibacterial activity against Escherichia coli ATCC25922 at pH 7.20; format: functional
Escherichia coli [23] = experiment: Antibacterial activity against Escherichia coli ATCC25922 at pH 7.40; format: functional
Escherichia coli [24] = experiment: Antibacterial activity against Escherichia coli ATCC25922 at pH 7.60; format: functional
Escherichia coli [25] = experiment: Antibacterial activity against Escherichia coli ATCC25922 at pH 7.80; format: functional
Staphylococcus aureus [26] = experiment: Antibacterial activity against Staphylococcus aureus ATCC25923 at pH 6.80; format: functional
Staphylococcus aureus [27] = experiment: Antibacterial activity against Staphylococcus aureus ATCC25923 at pH 7; format: functional
Staphylococcus aureus [28] = experiment: Antibacterial activity against Staphylococcus aureus ATCC25923 at pH 7.20; format: functional
Staphylococcus aureus [29] = experiment: Antibacterial activity against Staphylococcus aureus ATCC25923 at pH 7.40; format: functional
Staphylococcus aureus [30] = experiment: Antibacterial activity against Staphylococcus aureus ATCC25923 at pH 7.60; format: functional
Staphylococcus aureus [31] = experiment: Antibacterial activity against Staphylococcus aureus ATCC25923 at pH 7.80; format: functional
Escherichia coli [32] = experiment: Antibacterial activity against Escherichia coli ATCC25922 under 10^4 CFU/ml of bacterial inoculum culture by absorbance based assay; format: functional
Escherichia coli [33] = experiment: Antibacterial activity against Escherichia coli ATCC25922 under 10^5 CFU/ml of bacterial inoculum culture by absorbance based assay; format: functional
Escherichia coli [34] = experiment: Antibacterial activity against Escherichia coli ATCC25922 under 10^6 CFU/ml of bacterial inoculum culture by absorbance based assay; format: functional
Escherichia coli [35] = experiment: Antibacterial activity against Escherichia coli ATCC25922 under 10^7 CFU/ml of bacterial inoculum culture by absorbance based assay; format: functional
Staphylococcus aureus [36] = experiment: Antibacterial activity against Staphylococcus aureus ATCC25923 under 10^4 CFU/ml of bacterial inoculum culture by absorbance based assay; format: functional
Staphylococcus aureus [37] = experiment: Antibacterial activity against Staphylococcus aureus ATCC25923 under 10^5 CFU/ml of bacterial inoculum culture by absorbance based assay; format: functional
Staphylococcus aureus [38] = experiment: Antibacterial activity against Staphylococcus aureus ATCC25923 under 10^6 CFU/ml of bacterial inoculum culture by absorbance based assay; format: functional
Staphylococcus aureus [39] = experiment: Antibacterial activity against Staphylococcus aureus ATCC25923 under 10^7 CFU/ml of bacterial inoculum culture by absorbance based assay; format: functional
Staphylococcus aureus [40] = experiment: Bactericidal activity against Staphylococcus aureus ATCC25923 at MIC incubated for 10 to 12 hrs by time-kill assay relative to control; format: functional; settings: time 10-12 hrs
Escherichia coli [41] = experiment: Bactericidal activity against Escherichia coli ATCC25922 at MIC incubated for 5 hrs by time-kill assay relative to control; format: functional
Staphylococcus aureus [42] = experiment: Induction of resistance development in Staphylococcus aureus ATCC25923 at 0.5 times MIC treated daily with continuous passaging measured for 20 passages by absorbance based assay; format: functional, organism-based; settings: time 20.0 day
Staphylococcus aureus [43] = experiment: Induction of resistance development in Staphylococcus aureus ATCC25923 treated daily with continuous passaging measured after 7 passages by absorbance based assay; format: functional; settings: ATCC25923, 168 h, time 7 day
Staphylococcus aureus [44] = experiment: Induction of resistance development in Staphylococcus aureus ATCC25923 treated daily with continuous passaging measured after 13 passages by absorbance based assay; format: functional; settings: ATCC25923, 312 h, time 13 day
Escherichia coli [45] = experiment: Induction of resistance development in Escherichia coli ATCC25922 treated daily with continuous passaging measured for 20 passages by absorbance based assay; format: functional, organism-based; settings: time 20.0 day
Escherichia coli [46] = experiment: Induction of resistance development in Escherichia coli ATCC25922 treated daily with continuous passaging measured after 8 passages by absorbance based assay; format: functional; settings: ATCC25922, 192 h, time 8 day
Escherichia coli [47] = experiment: Induction of resistance development in Escherichia coli ATCC25922 treated daily with continuous passaging measured after 12 passages by absorbance based assay; format: functional; settings: ATCC25922, 288 h, time 12 day
Escherichia coli [48] = experiment: Induction of resistance development in Escherichia coli ATCC25922 treated daily with continuous passaging measured after 19 passages by absorbance based assay; format: functional; settings: ATCC25922, 456 h, time 19 day
[49] = Cytotoxicity against mouse HT-22 cells incubated for 72 hrs by MTT assay; format: toxicity, cell-based
[50] = Selectivity index, ratio of IC50 for mouse HT-22 cells to MIC for methicillin-resistant Staphylococcus aureus; format: toxicity, cell-based
[51] = Toxicity in Kunming mouse assessed as histopathological changes in heart at 80 mg/kg/day, IG measured for 1 week; format: organism-based; settings: in vivo, po, 168 h, time 1 weeks
[52] = Toxicity in Kunming mouse assessed as histopathological changes in liver at 80 mg/kg/day, IG measured for 1 week; format: organism-based; settings: in vivo, po, 168 h, time 1 weeks
[53] = Toxicity in Kunming mouse assessed as histopathological changes in spleen at 80 mg/kg/day, IG measured for 1 week; format: organism-based; settings: in vivo, po, 168 h, time 1 weeks
[54] = Toxicity in Kunming mouse assessed as histopathological changes in lung at 80 mg/kg/day, IG measured for 1 week; format: organism-based; settings: in vivo, po, 168 h, time 1 weeks
[55] = Toxicity in Kunming mouse assessed as histopathological changes in kidney at 80 mg/kg/day, IG measured for 1 week; format: organism-based; settings: in vivo, po, 168 h, time 1 weeks

`CC[C@H]1OC(=O)C[C@@H](O)[C@H](C)[C@@H](O[C@@H]2O[C@H](C)[C@@H](O)[C@H](N(C)C)[C@H]2O)[C@@H](CCN(C)Cc2cn(-c3cnc4ccccc4c3)nn2)C[C@@H](C)C(=O)/C=C/C(C)=C/[C@@H]1CNCc1cccc(C)c1` gave an MIC (Staphylococcus aureus [1]) of 0.5 µg/mL (≈ 0.541 µM), an MIC (Escherichia coli [2]) of 0.5 µg/mL (≈ 0.541 µM) and an MIC (Enterococcus faecalis [3]) of 1 µg/mL (≈ 1.08 µM). For the same compound, the MIC [4] was 2 µg/mL (≈ 2.16 µM), the MIC (Staphylococcus aureus [5]) was 0.5 µg/mL (≈ 0.541 µM) and the MIC (Escherichia coli [6]) was 0.5 µg/mL (≈ 0.541 µM). The MIC (Escherichia coli [7]) was 1 µg/mL (≈ 1.08 µM), the MBC (Staphylococcus aureus [8]) was 2 µg/mL (≈ 2.16 µM) and the MIC (Staphylococcus aureus [9]) was 0.5 µg/mL (≈ 0.541 µM). It also gave a Ratio (Staphylococcus aureus [10]) of 2, an MBC (Enterococcus faecalis [11]) of 8 µg/mL (≈ 8.66 µM) and an MIC (Enterococcus faecalis [12]) of 1 µg/mL (≈ 1.08 µM). The Ratio (Enterococcus faecalis [13]) was 4, the MBC (Escherichia coli [14]) was 4 µg/mL (≈ 4.33 µM) and the MIC (Escherichia coli [15]) was 1 µg/mL (≈ 1.08 µM). For the same compound, the Ratio (Escherichia coli [16]) was 4, the MBC [17] was 8 µg/mL (≈ 8.66 µM) and the MIC [18] was 1 µg/mL (≈ 1.08 µM). It also gave a Ratio [19] of 8, an MIC (Escherichia coli [20]) of 0.5 µg/mL (≈ 0.541 µM) and an MIC (Escherichia coli [21]) of 0.5 µg/mL (≈ 0.541 µM). It also gave an MIC (Escherichia coli [22]) of 0.5 µg/mL (≈ 0.541 µM), an MIC (Escherichia coli [23]) of 0.25 µg/mL (≈ 0.271 µM) and an MIC (Escherichia coli [24]) of 0.125 µg/mL (≈ 0.135 µM). For the same compound, the MIC (Escherichia coli [25]) was 0.125 µg/mL (≈ 0.135 µM), the MIC (Staphylococcus aureus [26]) was 1 µg/mL (≈ 1.08 µM) and the MIC (Staphylococcus aureus [27]) was 0.5 µg/mL (≈ 0.541 µM). It also gave an MIC (Staphylococcus aureus [28]) of 0.5 µg/mL (≈ 0.541 µM), an MIC (Staphylococcus aureus [29]) of 0.5 µg/mL (≈ 0.541 µM) and an MIC (Staphylococcus aureus [30]) of 0.25 µg/mL (≈ 0.271 µM). It also gave an MIC (Staphylococcus aureus [31]) of 0.125 µg/mL (≈ 0.135 µM), an MIC (Escherichia coli [32]) of 0.125 µg/mL (≈ 0.135 µM) and an MIC (Escherichia coli [33]) of 0.25 µg/mL (≈ 0.271 µM). For the same compound, the MIC (Escherichia coli [34]) was 0.5 µg/mL (≈ 0.541 µM), the MIC (Escherichia coli [35]) was 0.5 µg/mL (≈ 0.541 µM) and the MIC (Staphylococcus aureus [36]) was 0.125 µg/mL (≈ 0.135 µM). The MIC (Staphylococcus aureus [37]) was 0.25 µg/mL (≈ 0.271 µM), the MIC (Staphylococcus aureus [38]) was 0.25 µg/mL (≈ 0.271 µM) and the MIC (Staphylococcus aureus [39]) was 0.5 µg/mL (≈ 0.541 µM). The Activity (Staphylococcus aureus [40]) was 100%, the Activity (Escherichia coli [41]) was 100% and the Activity (Staphylococcus aureus [42]) was “Not active; Compound Induced Resistance Less Rapidly Than That Of Control Drug Linezolid”. For the same compound, the MIC (Staphylococcus aureus [43]) was 1 µg/mL (≈ 1.08 µM), the MIC (Staphylococcus aureus [44]) was 2 µg/mL (≈ 2.16 µM) and the Activity (Escherichia coli [45]) was “Not active; Compound Induced Resistance More Slowly Than Control Drug Florfenicol”. The MIC (Escherichia coli [46]) was 1 µg/mL (≈ 1.08 µM), the MIC (Escherichia coli [47]) was 2 µg/mL (≈ 2.16 µM) and the MIC (Escherichia coli [48]) was 4 µg/mL (≈ 4.33 µM). For the same compound, the IC50 at 72 h [49] was 130 µg/mL (≈ 141 µM), the selectivity ratio [50] was 130 and the Activity [51] was “Non-toxic”. For the same compound, the Activity [52] was “Non-toxic”, the Activity [53] was “Non-toxic” and the Activity [54] was “Non-toxic”. The Activity [55] was “Non-toxic”.
